Reference: patent publication US10766914B2, “DNA alkylating agents” (OBI PHARMA, INC., priority 2015, dated 2020)
pIC50: −log10 of the molar value.

Columns and labels:
[1] = system: SNU-423; assay: TH2870 sensitivity in liver cancer cells; assay type: cell-based, human; conditions: AKR1C3 expression +
[2] = Pharmacokinetics of TH2870 in CD-1 mice, single IV bolus and single IP dose; conditions: mouse, in vivo
Method: The pharmacokinetics of TH2870 in CD-1 mice following a single intravenous bolus dose (5 mg/kg) and a single intraperitoneal dose (10 mg/kg) were determined.

[3] = system: Hep G2; assay: TH2870 sensitivity in liver cancer cells; assay type: cell-based, human
[4] = system: PLC/PRF/5; assay: TH2870 sensitivity in liver cancer cells; assay type: cell-based, human; conditions: AKR1C3 expression +++
[5] = system: SNU-398; assay: TH2870 sensitivity in liver cancer cells; assay type: cell-based, human; conditions: AKR1C3 expression /
[6] = Nu-Foxn1nu NU/NU, mouse, in vivo, ip, 20 mg/kg
Method: The pharmacokinetics of TH2870 were determined in Mouse/Nu-Foxn 1^nu NU/NU mice with A549 (non small cell lung), A375 (melanoma) and 786-O (renal cell) human tumor xenograft models following a single intraperitoneal dose of 20 mg/kg.

[7] = system: SNU-182; assay: TH2870 sensitivity in liver cancer cells; assay type: cell-based, human; conditions: AKR1C3 expression /
[8] = molecular target: T1, AKR1C3 (Homo sapiens, UniProt P42330); assay: Activation by the aldoketo reductase AKR1C3 (% remaining, LC/MS/MS); assay type: biochemical; conditions: for % Remaining: 5 μM, 25 μg/mL AKR1C3, 2 mM NADPH, 37° C.
T1 sequence (P42330 1-323): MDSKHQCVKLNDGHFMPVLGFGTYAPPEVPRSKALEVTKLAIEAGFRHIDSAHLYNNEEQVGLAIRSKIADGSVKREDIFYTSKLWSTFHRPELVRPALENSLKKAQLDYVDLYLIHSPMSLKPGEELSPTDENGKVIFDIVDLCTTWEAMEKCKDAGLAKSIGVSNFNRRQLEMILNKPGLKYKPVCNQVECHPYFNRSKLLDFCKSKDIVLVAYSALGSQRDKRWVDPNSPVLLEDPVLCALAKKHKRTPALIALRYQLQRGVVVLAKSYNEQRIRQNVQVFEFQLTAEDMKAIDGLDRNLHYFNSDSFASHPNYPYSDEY
Method: Recombinant human AKR1C3 was diluted to 25 μg/mL in phosphate buffered saline (PBS), pH 7.4 (37° C.), containing 2 mM NADPH. TH2870 or progesterone (positive control) in 30% methanol/70% water was added to the reaction mixture at a final concentration of 5 μM and incubated at 37° C. for 120 minutes. At various times up to 120 min, 50 μL of the reaction mixture was taken and 200 μL acetonitrile containing propranolol as internal standard was added, vortex-mixed and centrifuged for 10 min. The resulting supernatant (5 μL) was injected into a LC/MS/MS for quantitation of % remaining TH2870 and progesterone. The compounds were tested in duplicate.

[9] = system: SK-HEP-1; assay: TH2870 sensitivity in liver cancer cells; assay type: cell-based, human
[10] = system: A549 NSCLC xenograft; assay: Example 4-D antitumor efficacy, ectopic A549 NSCLC xenograft model; assay type: in vivo, female nude mice (nu/nu)
From the text: Specific pathogen-free homozygous female nude mice (nu/nu, Charles River Laboratories) were used. Mice were given food and water ad libitum and housed in microisolator cages. Four to six week old animals were identified by microchips (Locus Technology, Manchester, Md., USA) at the time of the experiments. All animal studies were approved by the Institutional Animal Care and Use Committee at Threshold Pharmaceuticals, Inc.
All cell lines were from the American Type Culture Collection (ATCC, Rockville, Md., USA).
Cells were mixed with Matrigel (50% with exception for 30% in the H460) and 0.2 ml per mouse were subcutaneously implanted to the flank area of the animals. When tumor size reached 100-150 250 mm3, mice were randomized into experimental or vehicle groups with 10 mice/group and treatment was started (Day 1). The tested compounds were formulated in 5% DMSO in D5W. The regimens employed in the examples include IP, QD×5/wk (5 days on, 2 days off) as one cycle, for a total of 2 cycles; IP, once; IP, weekly for total 3 weeks; and IV, weekly for 3 weeks. Tumor growth and body weight were measured twice a week. Tumor volume was calculated as (length×width2)/2. Drug efficacy was assessed as Tumor Growth Inhibition (TGI) and Tumor Growth Delay (TGD). TGI was defined as (1−ΔT/ΔC)×100, where ΔT/ΔC presented the ratio of the change in mean (or median, if variation within the group was relatively large) tumor volume of the treated group and of the control group. TGD was calculated as the extra days for the treated tumor to reach 500 mm3 or 1000 mm3 as compared to the control group. Animals were culled when individual tumor size reached over 2000 mm3 or mean tumor volume exceeded 1000 mm3 in the group. Data are expressed as the mean±SEM. One-way analysis of variance with Dunnett post comparison test (GraphPad Prism 4) or two-tailed student's t-test were used for analysis. A P level <0.05 was considered statistically significant.
The compounds were tested in another A549 model. The compounds were dosed as follows. Daily IP dosing: 5 doses then 2 days off then 5 more doses starting at 100 mm^3 tumors on day 1 (10 animals per group average tumor volume). The antitumor effects and the safety of administration are graphically illustrated below.

[11] = system: LIXC-002; assay: TH2870 sensitivity in liver cancer cells; assay type: cell-based, human; conditions: AKR1C3 expression +++
[12] = system: HLE; assay: TH2870 sensitivity in liver cancer cells; assay type: cell-based, human; conditions: AKR1C3 expression ++
[13] = system: LIXC-066; assay: TH2870 sensitivity in liver cancer cells; assay type: cell-based, human; conditions: AKR1C3 expression ++
[14] = Homo sapiens, read-out: RelIC50

CC(OP(=O)(N1CC1)N1CC1)c1ccc([N+](=O)[O-])c(Oc2cccc(C(=O)N(C)C)c2)c1 (stereo not shown) [Compound 2870]
Max Inhibition % [1]: 43.3%
pIC50 [1, 14]: < 6.00
AUC ([2]; IP 10 mg/kg): 725 ng·h/mL
Cmax ([2]; IP 10 mg/kg): 4020 ng/mL
Tmax ([2]; IP 10 mg/kg): 5 min
half-life ([2]; IP 10 mg/kg): 9 min
AUC ([2]; IV bolus 5 mg/kg): 963 ng·h/mL
Cmax ([2]; IV bolus 5 mg/kg): 6790 ng/mL
Tmax ([2]; IV bolus 5 mg/kg): 2 min
clearance ([2]; IV bolus 5 mg/kg): 86.5 mL/min/kg
half-life ([2]; IV bolus 5 mg/kg): 6.56 min
Vd ([2]; IV bolus 5 mg/kg, read-out: Vss): 0.668 L/kg
Max Inhibition % ([3]; AKR1C3 expression ++++): 98.9%
pIC50 ([3]; Homo sapiens, HepG2, AKR1C3 expression ++++, read-out: RelIC50): 8.26
Max Inhibition % [4]: 53.3%
Max Inhibition % [5]: 15.3%
pIC50 [5, 14]: < 6.00
activation of TH2870 in liver (TH2660 relative to TH2870) [6]: ~13 fold
activation of TH2870 in tumor (TH2660 relative to TH2870) [6]: ~148 fold
Max Inhibition % [7]: 19.4%
pIC50 [7, 14]: < 6.00
% Remaining ([8]; 0 min): 100%
% Remaining ([8]; 15 min): 0.232%
% Remaining ([8]; 30 min): 0.0101%
% Remaining ([8]; 60 min): 0.00%
% Remaining ([8]; 90 min): 0.00%
% Remaining ([8]; 120 min): 0.00%
disappearance in the presence of AKR1C3 ([8]; in words): rapid disappearance
Max Inhibition % ([9]; AKR1C3 expression /): 44.3%
pIC50 ([9]; Homo sapiens, SK-HEP1, AKR1C3 expression /, read-out: RelIC50): < 6.00
TGD 500 ([10]; 20 mg/kg IP QD × 5/wk × 2 wks): >85 days
TGI ([10]; 20 mg/kg IP QD × 5/wk × 2 wks): 95.0%
TGD 500 ([10]; 40 mg/kg IV 2/wk × 2 wks): >85 days
TGI ([10]; 40 mg/kg IV 2/wk × 2 wks): 98.6%
Max Inhibition % [11]: 99.1%
pIC50 [11, 14]: 7.25
Max Inhibition % [12]: 80.5%
pIC50 [12, 14]: 7.07
Max Inhibition % [13]: 75.4%
pIC50 [13, 14]: 7.03
